Patent publication US20110300229A1, “TREATING OR PREVENTING ROTAVIRUS INFECTION” (FONTERRA CO-OPERATIVE GROUP LIMITED, priority 2007, published 2011)
Where “and” joins values, the source holds several entries; their conditions need not be identical. Equal entries are not always repeated. Marks after values point to notes of the source that are not given here.

System: human rotavirus strain Wa
Assay: Rotavirus infection assay in HT29 cells (crystal violet, % uninfected cells)
Assay type: cell-based
Conditions: for activity in preventing virus infection of the cells: over a range of concentrations
Method: The HT29 cell line was used to propagate the human rotavirus strain Wa (neuraminidase resistant) in the presence of 1 μg/ml trypsin in Dulbecco's minimal essential medium (DMEM) supplemented with 10% foetal calf serum and penicillin/streptomycin (100 μg/ml/100 units/ml). Rotavirus was harvested by freeze thawing twice, spun at 750 g to remove cell debris and stored at −80° C. The rotavirus was assayed and found to contain […] plaque forming units (pfu)/ml.
The infection assay used was based on a number of published assays (Scott et al 1979; Smith et al 1979; Guarino et al 1996; Superb et al 2001). Confluent HT29 cells grown in DMEM (seeded at 3×10^5/ml in 96 well plates) were washed twice in sterile PBS. Doubling dilutions of each of the products to be screened (initial concentration 5 mg/ml) were made in the plate in 50 μl volumes of DMEM. Virus was added (10^4 pfu/well) to all wells except the cells only control and plates were then incubated for two hours in 5% CO2 at 37° C. Other controls included virus plus cells, lipids only, pure GM3 and pure GD3. Following the two-hour incubation trypsin was added to all the wells containing virus at a concentration of 2 μg/ml—this step cleaves VP4 to polypeptides VP8 and VP5 and is needed for the virion to penetrate into the cells' interior. Plates were incubated at 37° C. in 5% CO2 for seven days and were checked daily for cytopathic effect in the virus only control wells. Media was removed and plates washed in sterile PBS, air-dried and fixed with methanol for one minute. Plates were air dried and then stained with 100 μl/well of 1% crystal violet (351884W, BDH, England) for five minutes. Plates were washed four times with sterile water to remove excess stain. 100 μl of acetic acid per well was added to solubilise the stain and absorbance was read at a wavelength of 595 nm in a Biorad ELISA plate reader. Each sample was assayed on a minimum of three separate occasions and the percentage of uninfected cells calculated.
Statistical analysis was performed using an unpaired Student t test (InStat for MacIntosh) to compare the effect of the lipid products derived from bovine milk with the virus only control at the lowest dilution of the product.

Monosialoganglioside GM3
Percentage of HT29 cells uninfected by rotavirus (7.8125 μg/ml): 34 +/− 1.5% | Percentage of HT29 cells uninfected by rotavirus (15.625 μg/ml): 33 +/− 2.5% | Percentage of HT29 cells uninfected by rotavirus (31.25 μg/ml): 43+/−10% | Percentage of HT29 cells uninfected by rotavirus (125 μg/ml): 49 +/− 8*** % | activity in preventing virus infection of the cells: showed activity over a range of concentrations

disialoganglioside GD3
Percentage of HT29 cells uninfected by rotavirus (15.625 μg/ml): 31 +/− 1.5% | Percentage of HT29 cells uninfected by rotavirus (31.25 μg/ml): 40+/−3% and 40 +/− 2.5*** % | Percentage of HT29 cells uninfected by rotavirus (62.5 μg/ml): 59 +/− 1.4*** % | Percentage of HT29 cells uninfected by rotavirus (250 μg/ml, mean +/− spread): 57 +/− 1*** % | activity in preventing virus infection of the cells: showed activity over a range of concentrations
